Earlier results as cited in patent US9272137B2, “Transdermal methods and systems for the delivery of anti-migraine compounds” (Teva Pharmaceuticals International GmbH, priority 2006, dated 2016).

serum elimination half-life (in vivo): 2 h
time within which most of the active drug is eliminated (majority of patients): 4 to 6 h
Structure (SMILES): CNS(=O)(=O)Cc1ccc2[nH]cc(CCN(C)C)c2c1 [Sumatriptan]
